Assay results published in patent US20100063046A1, “TETRACYCLIC IMIDAZOLE ANALOGS” (priority 2006, published 2010).

B1: 8762NT: DNA oligonucleotide from human rDNA non-template strand, CGGAGGGCGCGCGGGTCGGGGCGGCGGCGGCGGCGGCGGTGGCGGCGGCGGCGGGGGCGGCGGG (nucleic acid)
DNA: CGGAGGGCGCGCGGGTCGGGGCGGCGGCGGCGGCGGCGGTGGCGGCGGCGGCGGGGGCGGCGGG
modifications: chemistry not given here

What follows are molecules tested against T1, nucleolin (Homo sapiens, UniProt P19338) (assay: Nucleolin/nucleic acid ligand interaction assay (gel retardation)). Settings: relative affinity of each nucleic acid ligand for recombinant nucleolin (MBP fusion, ~250 nM); 32P-labeled ligand; 6% DNA retardation gel.
T1 construct: without the N-terminal acidic stretches domain
T1 sequence (P19338 284-710 limits assumed): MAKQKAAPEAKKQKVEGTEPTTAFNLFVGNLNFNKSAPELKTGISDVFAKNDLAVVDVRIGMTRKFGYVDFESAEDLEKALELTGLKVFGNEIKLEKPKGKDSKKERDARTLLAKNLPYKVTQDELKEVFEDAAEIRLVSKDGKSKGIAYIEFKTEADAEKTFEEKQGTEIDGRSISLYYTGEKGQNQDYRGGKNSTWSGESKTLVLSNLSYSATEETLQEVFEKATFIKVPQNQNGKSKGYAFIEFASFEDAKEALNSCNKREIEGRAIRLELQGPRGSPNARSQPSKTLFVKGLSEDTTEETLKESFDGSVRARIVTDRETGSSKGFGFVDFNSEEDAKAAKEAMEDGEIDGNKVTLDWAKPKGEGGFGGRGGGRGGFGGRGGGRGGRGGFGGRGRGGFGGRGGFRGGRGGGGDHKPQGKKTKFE
Type: binding
Design: key: A “+” represents the weakest nucleolin affinity; a “++++” represents the strongest nucleolin affinity
Experimental: The following assays can be used to assess the effects of compounds on interactions between nucleolin and nucleic acid ligands capable of forming quadruplex (QP) and hairpin (HP) secondary structures. Nucleic acid ligands tested were a cMyc QP DNA having nucleotide sequence 5′-[…]-3′ and a HP pre-rRNA region to which nucleolin binds, having the sequence 5′-[…]-3′. In the assays, recombinant nucleolin (˜250 nM), which has been fused to maltose binding protein, and has the sequence under accession number NM_005381 without the N-terminal acidic stretches domain, is incubated with each of the two ^32P-labeled nucleic acid ligands (10 or 250 nM). Nucleolin and the nucleic acid ligand are incubated in the presence or absence of a test compound 7 in an incubation buffer (12.5 mM Tris, pH 7.6, 60 mM KCl, 1 mM MgCl2, 0.1 mM EDTA, 1 mM DTT, 5% glycerol, 0.1 mg/ml BSA) for 30 minutes at room temperature.
The resulting complexes are separated on a 6% DNA retardation gel using 0.5×TBE with 20 mM KCl as a running buffer. The assay also can be conducted using nucleic acid ligands derived from human ribosomal DNA, whereby one can identify a compound that selectively modulates formation of a nucleolin/nucleic acid complex that depends on the conformation of the nucleic acid. Sequences of suitable nucleic acids are shown in the preceding example. […] A “+” represents the weakest nucleolin affinity and a “++++” represents the strongest nucleolin affinity. […] Using nucleic acids such as these having known conformational properties, one can identify a compound such as the compounds described herein that selectively interferes with binding of nucleolin to a particular quadruplex structure.

Molecule	Affinity for Nucleolin
8511NT: DNA oligonucleotide from human rDNA non-template strand, GGGGGTGGGCGGGCGGGGCCGGGGGTGGG (DNA, backbone and methylation of C not given here) [Example 8511NT]	++++
8749NT: DNA oligonucleotide from human rDNA non-template strand, GGGAGGGCGCGCGGGTCGGGG (chemistry not given here) [Example 8749NT]	+
6183NT: DNA oligonucleotide from human rDNA non-template strand, GGGTCGGGGGCGGTGGTGGGCCCGCGGGGG (DNA, backbone and methylation of C not given here) [Example 6183NT]	+
7733T: DNA oligonucleotide from human rDNA template strand, GGGAGGGGCACGGGCCGGGGGCGGGACGGG (DNA, backbone and methylation of C not given here) [Example 7733T]	+
11028NT: DNA oligonucleotide from human rDNA non-template strand, GGGGCGCGGCGGGGGGAGAAGGGTCGGGGCGGCAGGGG (DNA, backbone and methylation of C not given here) [Example 11028NT]	+
B1	++++
